Source: publication PMC11071649, “Synthesis and Selective Anticancer Activity Evaluation of 2-phenylacrylonitrile Derivatives as Tubulin Inhibitors” (Current Medicinal Chemistry, 2024)

Columns and labels:
Type in all cases: cell-based, human
A549 lung cancer cell = test: MTT anti-proliferative assay, A549; details: MTT, 48 h
How it was run: (§1)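 Anti-proliferative effect is measured with the MTT assay, which reports inhibition of net cell growth. Cells come from ATCC, are maintained in DMEM with FBS and are seeded into 96-well plates before treatment.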

AGS gastric cancer cell = test: MTT anti-proliferative assay, AGS; details: for IC50: MTT, 48 h
How it was run: as §1

[1] = test system: BEL-7402 liver cancer cell; test: MTT anti-proliferative assay, BEL-7402; details: for IC50: MTT, 48 h
How it was run: as §1

[2] = test system: HCT116 colectal cancer cell; test: MTT anti-proliferative assay, HCT116; details: for IC50: MTT, 48 h, read-out: IC50 HCT-116
How it was run: as §1

[3] = test system: HeLa cervical cancer cell; test: MTT anti-proliferative assay, HeLa; details: MTT, 48 h
How it was run: as §1

HepG2 hepatoma cell = test: MTT anti-proliferative assay, HepG2; details: for IC50: MTT, 48 h, read-out: IC50 HepG-2
How it was run: as §1

L-02 normal liver cell = test: MTT assay, L-02 normal cells; details: 48 h
How it was run: as §1

[4] = test system: MGC-803 late stage differentiation gastric cancer cell; test: MTT anti-proliferative assay, MGC-803; details: for IC50: MTT, 48 h
How it was run: as §1

MCF-7 breast cancer cell = test: MTT anti-proliferative assay, MCF-7; details: MTT, 48 h
How it was run: as §1

[5] = test system: MCF-10A normal breast cell; test: MTT assay, MCF-10A normal cells; details: 48 h
How it was run: as §1

[6] = test system: Raji B lymphoblastoid cell; test: MTT anti-proliferative assay, Raji; details: for IC50: MTT, 48 h, read-out: IC50 Raji
How it was run: as §1

[7] = test system: SGC-7901 early differentiation gastric cancer cell; test: MTT anti-proliferative assay, SGC-7901; details: for IC50: MTT, 48 h
How it was run: as §1

[8] = test system: diffuse large B-cell lymphoma SU-DHL-10 cell; test: MTT anti-proliferative assay, SU-DHL-10; details: for IC50: MTT, 48 h, read-out: IC50 SU-DHL-10
How it was run: as §1

SMILES | IC50 (A549 lung cancer cell) | SI (selectivity index), IC50 (L-02)/IC50 (AGS) (AGS gastric cancer cell) | IC50 (AGS gastric cancer cell) | SI (selectivity index), IC50 (L-02)/IC50 (BEL-7402) [1] | IC50 [1] | IC50 [2] | IC50 [3] | SI (selectivity index), IC50 (L-02)/IC50 (HepG-2) (HepG2 hepatoma cell) | IC50 (HepG2 hepatoma cell) | IC50 (L-02 normal liver cell) | SI (selectivity index), IC50 (L-02)/IC50 (MGC-803) [4] | IC50 [4] | IC50 (MCF-7 breast cancer cell) | IC50 [5] | SI (selectivity index), IC50 (L-02)/IC50 (Raji) [6] | IC50 [6] | SI (selectivity index), IC50 (L-02)/IC50 (SGC-7901) [7] | IC50 [7] | IC50 [8] | further results
N#C/C(=C\c1ccc(Br)cc1)c1cccc(OC(F)(F)F)c1 [Compound 1b2d] | > 100 µM | > 3.5 | 13.9 ± 4.2 µM | > 3.4 | 14.6 ± 4.6 µM | 15.1 ± 2.9 µM | 66.8 ± 9.8 µM | > 1.4 | 34.9 ± 3.2 µM | 50.4 ± 0.8 µM | > 4.9 | 10.1 ± 0.9 µM | > 100 µM | 34.1 ± 3.6 µM | > 3.0 | 16.3 ± 6.1 µM | > 2.3 | 21.9 ± 3.3 µM | 35.6 ± 0.9 µM | SI (selectivity index), IC50 (L-02)/IC50 (SU-DHL-10) [8]: > 1.4
Cc1ccc(/C=C(\C#N)c2cccc(OC(F)(F)F)c2)cc1 [Compound 1b2e] | > 100 µM | > 11.9 | 4.5 ± 2 µM | > 1.3 | 39.4 ± 6.1 µM | 25 ± 0.5 µM | 61.7 ± 3.3 µM | > 1.4 | 38.2 ± 0.1 µM | 54.2 ± 12.3 µM | > 4.8 | 11.1 ± 0.3 µM | > 100 µM | > 100 µM | > 1.2 | 43.1 ± 4.5 µM | > 6.6 | 8.1 ± 2.9 µM | 29.3 ± 2 µM | SI (selectivity index), IC50 (L-02)/IC50 (HCT-116) [2]: > 2.1; SI (selectivity index), IC50 (L-02)/IC50 (SU-DHL-10) [8]: > 1.8
CCc1ccc(/C=C(\C#N)c2cccc(OC(F)(F)F)c2)cc1 [Compound 1b2f] | > 100 µM | > 2.2 | 43.8 ± 21.8 µM | > 2.2 | 44.8 ± 10.6 µM | > 100 µM | > 100 µM | > 1.9 | 72.9 ± 9.9 µM | > 100 µM | > 2.0 | 49.3 ± 0.3 µM | > 100 µM | > 100 µM |  | > 100 µM | > 1.6 | 61.7 ± 0.4 µM | > 100 µM | 
CC(C)c1ccc(/C=C(\C#N)c2cccc(OC(F)(F)F)c2)cc1 [Compound 1b2g] | > 100 µM |  | > 100 µM |  | > 100 µM | > 100 µM | > 100 µM |  | > 100 µM | > 100 µM |  | > 100 µM | > 100 µM | > 100 µM |  | > 100 µM |  | > 100 µM | > 100 µM | 
CN(C)c1ccc(/C=C(\C#N)c2cccc(OC(F)(F)F)c2)cc1 [Compound 1b2h] | > 100 µM |  | > 100 µM | > 50.5 | 1 ± 0.8 µM | 0.3 ± 0.2 µM | > 100 µM | > 1.3 | 42.3 ± 18.2 µM | 52 ± 8.4 µM | > 13.9 | 3.7 ± 1.3 µM | > 100 µM | > 100 µM | > 2.5 | 20.1 ± 2.3 µM | > 7.2 | 7.1 ± 2.4 µM | > 100 µM | SI (selectivity index), IC50 (L-02)/IC50 (HCT-116) [2]: > 153.1
N#C/C(=C\c1ccc(N2CCOCC2)cc1)c1cccc(OC(F)(F)F)c1 [Compound 1b2i] | > 100 µM | > 1.1 | 23.9 ± 2.7 µM | > 2.1 | 13 ± 1.1 µM | 12.3 ± 1.6 µM | > 100 µM | > 1.2 | 23.5 ± 4.3 µM | 28.5 ± 0.8 µM | > 2.6 | 10.8 ± 2.9 µM | > 100 µM | 79.6 ± 5.7 µM | > 1.1 | 23.7 ± 2.1 µM |  | 46 ± 4.9 µM | 53.6 ± 7.5 µM | SI (selectivity index), IC50 (L-02)/IC50 (HCT-116) [2]: > 2.3
COc1ccc(/C=C(\C#N)c2cccc(OC(F)(F)F)c2)cc1 [Compound 1b2j] | > 100 µM |  | > 100 µM |  | > 100 µM | > 100 µM | > 100 µM |  | > 100 µM | > 100 µM |  | > 100 µM | > 100 µM | > 100 µM |  | > 100 µM | > 1.3 | 72.1 ± 4.5 µM | > 100 µM | 
CCCOc1ccc(/C=C(\C#N)c2cccc(OC(F)(F)F)c2)cc1 [Compound 1b2k] | > 100 µM |  | > 100 µM |  | > 100 µM | > 100 µM | > 100 µM |  | > 100 µM | > 100 µM |  | > 100 µM | > 100 µM | > 100 µM |  | > 100 µM |  | > 100 µM | > 100 µM | 
N#C/C(=C\c1ccccn1)c1cccc(OC(F)(F)F)c1 [Compound 1b3a] | 32.6 ± 1.1 µM |  | 15.4 ± 0.5 µM | > 5.2 | > 100 µM | 19.3 ± 0.1 µM | 38.8 ± 3.5 µM |  | 21.5 ± 7.6 µM | 35.9 ± 1.6 µM |  | 20.7 ± 1.5 µM | 25.5 ± 0.4 µM | 22.7 ± 3.5 µM |  | 56.6 ± 5.8 µM |  | 20.9 ± 5.1 µM | 59.7 ± 0.8 µM | 
N#C/C(=C\c1ccccc1)c1ccccc1OC(F)(F)F [Compound 1c2a] | > 100 µM |  | > 100 µM |  | > 100 µM | > 100 µM | > 100 µM |  | > 100 µM | > 100 µM |  | > 100 µM | > 100 µM | > 100 µM |  | > 100 µM |  | > 100 µM | > 100 µM | 
N#C/C(=C\c1ccc(Cl)cc1)c1ccccc1OC(F)(F)F [Compound 1c2b] | > 100 µM | > 3.1 | 31.4 ± 8.3 µM |  | > 100 µM | > 100 µM | > 100 µM | > 1.4 | 70.5 ± 25.4 µM | > 100 µM | > 3.4 | 29 ± 8.3 µM | > 100 µM | > 100 µM |  | > 100 µM |  | > 100 µM | > 100 µM | 
